Test results from patent US20260176300A1, “N-ARYLPYRAZOLE NOD2 AGONISTS AS PROMOTERS OF IMMUNE CHECKPOINT INHIBITOR THERAPY” (THE SCRIPPS RESEARCH INSTITUTE, priority 2022, published 2026).
Read-outs that look alike come from different tables or passages of the source.

Key:
HEK-Blue Null2 = experiment: NULL HEK-Blue NF-κB reporter cell activation assay (control); type: cell-based; conditions: 10 μM, 16 h (FIG. 5)
Protocol: (§1) FIG. 5(A-B). Lead 3,5-dimethyl-N-arylpyrazole TT007 specifically activates NOD2. A-B, Activation of Null (control) and NOD1-expressing HEK-293T cells treated for 16 h with 10 μM of the indicated compound using a colorimetric assay. ****P<0.0001.
(§2) Cell culture. The following cell lines were used and sourced as follows: HEK-Blue NOD2 (InvivoGen, hkb-hnod2), HEK-Blue NOD1 (InvivoGen, hkb-nod1), HEK-Blue Null2 (hkb-null2), and B16-F10 (ATCC CRL-6475). All cell lines were cultured at 37° C. in 5% CO2 in DMEM (ThermoFisher, 11995065) supplemented with 10% fetal bovine serum (FBS), 100 U mL-1 penicillin, and 100 μg mL-1 streptomycin. Cells were maintained at no greater than 70% confluency and subcultured using TrypLE Express. Cell lines were routinely cultured without antibiotics to ensure no bacterial infection and tested for mycoplasma using a Universal Mycoplasma Detection Kit (ATCC 30-1012K). Primary human peripheral mononuclear blood cells (PBMCs) were cultured at 37° C. in 5% CO2 in RPMI 1640 (ThermoFisher, 61870143) supplemented with 10% FBS. […]
(§3) Reporter cell line activation assay. […] To measure activity, wells were then gently pipetted up and down to mix the conditioned medium, and absorbance from the colorimetric product of the secreted alkaline phosphatase was measured at 630 nm. […] Activity was then measured by absorbance as described above.

NOD2 = molecular target: T1, NOD2 (Homo sapiens, UniProt Q9HC29); experiment: NOD2-HEK-Blue NF-κB reporter cell activation assay (NOD2-expressing HEK-293T cells); type: cell-based
T1 construct: host or cells: HEK-293T-derived HEK-Blue NF-kB/SEAP reporter cells
Excerpt: FIG. 1(A-F). Virtual screening for small molecule NOD2 agonists. A, Docked structure of muramyl dipeptide (MDP) in the leucine-rich repeat (LRR) domain of rabbit NOD2 (pdb 5IRM). […] B, Results of virtual docking approach with reported chemical structures related to MDP. C, Workflow of virtual screening in which a library was generated using carboxylic acids appended to the L-Val-D-Glu dipeptide and then docked to the NOD2 LRR domain. D, Desmuramyl MDP (dMDP) structures resulting from the virtual screen that were synthesized for further screening. Chemicals shown as a pure enantiomer were synthesized as a racemic mixture. E, Activation of NOD2-expressing HEK-293T cells treated for 16 h with 10 µM of the indicated compound using a colorimetric assay. F, Dose-dependent activation of NOD2-expressing HEK-293T cells using the indicated compounds. Numbers in parentheses represent calculated negative log of the half maximal effective concentration (pEC50) values. NOD activation assays were analyzed using a one-way ANOVA with Dunnett's multiple comparisons test compared to the DMSO control. pEC50 values were derived by a three-parameter dose-response nonlinear regression. ****P<0.0001.
FIG. 2(A-G). Structure-activity relationship studies of 3,5-dimethyl-N-arylpyrazole NOD2 agonists. A, Structures of 3,5-dimethyl-N-arylpyrazole structures synthesized for SAR studies. B-F, Dose-dependent activation of NOD2-expressing HEK-293T cells using the indicated compounds grouped by similar structural perturbations. Numbers in parentheses represent calculated pEC50 values. G, Graph of calculated pEC50 values vs. calculated partition coefficient (clogP). Dotted lines show equivalent lipophilic ligand efficiency (LLE) values. Red arrow indicates optimization of the TT007 scaffold to TT030. pEC50 values were derived by a three-parameter dose-response nonlinear regression.
Cell culture. The following cell lines were used and sourced as follows: HEK-Blue NOD2 (InvivoGen, hkb-hnod2), HEK-Blue NOD1 (InvivoGen, hkb-nod1), HEK-Blue Null2 (hkb-null2), and B16-F10 (ATCC CRL-6475). All cell lines were cultured at 37° C. in 5% CO2 in DMEM (ThermoFisher, 11995065) supplemented with 10% fetal bovine serum (FBS), 100 U mL-1 penicillin, and 100 μg mL-1 streptomycin. Cells were maintained at no greater than 70% confluency and subcultured using TrypLE Express. Cell lines were routinely cultured without antibiotics to ensure no bacterial infection and tested for mycoplasma using a Universal Mycoplasma Detection Kit (ATCC 30-1012K). Primary human peripheral mononuclear blood cells (PBMCs) were cultured at 37° C. in 5% CO2 in RPMI 1640 (ThermoFisher, 61870143) supplemented with 10% FBS. All experimental work using human samples was reviewed and approved by the Scripps Research Institutional Review Board (Protocol IRB-21-7816NOD2).
Reporter cell line activation assay. Approximately 24 h before the assay, culture medium for each of the HEK-Blue reporter cell lines was replaced with a 1:1 mixture of DMEM supplemented with 10% FBS and OptiMEM. On the day of the assay, single cell suspensions (150,000 cells/mL) were produced in HEK-Blue detection medium (InvivoGen, hb-det2). Cells were aliquoted at 200 μL per well of a 96-well plate containing 0.2 μL of a 1000× stock of each test compound in DMSO. Cells were then incubated at 37° C. in 5% CO2 for 8-10 h. To measure activity, wells were then gently pipetted up and down to mix the conditioned medium, and absorbance from the colorimetric product of the secreted alkaline phosphatase was measured at 630 nm. In some assays, cells were stimulated for 16 h with compounds as described above in complete DMEM. Then, 20 μL of the conditioned medium was mixed with 180 μL QUANTI-Blue solution (InvivoGen, rep-qbs) and incubated for 2-4 h at 37° C. Activity was then measured by absorbance as described above.

NOD1 [1] = molecular target: T2, NOD1 (Homo sapiens, UniProt Q9Y239); experiment: NOD1 HEK-Blue NF-κB reporter cell activation assay (NOD1-expressing HEK-293T cells); type: cell-based; conditions: 10 μM, 16 h (FIG. 5)
T2 construct: host or cells: HEK-293T-derived HEK-Blue NF-kB/SEAP reporter cells
T2 sequence (Q9Y239 1-953): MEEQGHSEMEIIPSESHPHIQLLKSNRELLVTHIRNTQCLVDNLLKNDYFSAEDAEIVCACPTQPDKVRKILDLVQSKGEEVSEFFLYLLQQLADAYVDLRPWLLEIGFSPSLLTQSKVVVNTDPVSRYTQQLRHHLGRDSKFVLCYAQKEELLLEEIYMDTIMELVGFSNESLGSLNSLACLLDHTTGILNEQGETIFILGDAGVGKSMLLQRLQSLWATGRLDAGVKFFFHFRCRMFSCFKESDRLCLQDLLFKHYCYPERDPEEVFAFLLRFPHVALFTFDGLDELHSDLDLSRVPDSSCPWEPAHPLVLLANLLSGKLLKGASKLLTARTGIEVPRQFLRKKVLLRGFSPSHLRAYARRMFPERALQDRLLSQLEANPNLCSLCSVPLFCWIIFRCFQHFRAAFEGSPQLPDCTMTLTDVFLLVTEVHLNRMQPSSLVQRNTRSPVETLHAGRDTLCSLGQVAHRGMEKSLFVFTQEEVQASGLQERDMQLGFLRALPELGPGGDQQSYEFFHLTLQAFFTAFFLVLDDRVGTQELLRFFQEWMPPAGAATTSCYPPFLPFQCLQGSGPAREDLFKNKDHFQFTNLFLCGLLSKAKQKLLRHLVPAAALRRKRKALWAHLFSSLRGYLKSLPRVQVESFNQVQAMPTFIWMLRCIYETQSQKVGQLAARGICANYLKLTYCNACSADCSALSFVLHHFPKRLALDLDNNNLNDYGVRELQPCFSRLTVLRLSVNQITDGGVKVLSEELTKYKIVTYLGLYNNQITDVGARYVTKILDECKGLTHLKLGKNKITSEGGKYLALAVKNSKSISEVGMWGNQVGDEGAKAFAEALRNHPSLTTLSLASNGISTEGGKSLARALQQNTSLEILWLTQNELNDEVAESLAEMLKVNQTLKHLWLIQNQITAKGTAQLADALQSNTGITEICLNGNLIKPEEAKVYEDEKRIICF
Protocol: as §1, §2, §3

[2] = tested on: B16-F10 subcutaneous tumors; experiment: B16-F10 tumor growth assay with anti-PD-L1 co-treatment; type: in vivo, mice; conditions: wild-type C57BL/6 mice, 100 μg α-PD-L1 and 100 μg compound i.p. every other day
Protocol: FIG. 3(A-H). NOD2 agonist TT030 activates cytokine production in vitro and improves immune checkpoint inhibitor treatment of tumor growth in vivo. A-D, Measurements of secreted cytokine levels from human peripheral mononuclear blood cells (PMBCs) treated with the indicated compounds for 24 h without or with lipopolysaccharide (LPS). E, Structures of TT030 and its enantiomer (TT030-ent). F, Activation of NOD1- and NOD2-expressing HEK-293T cells with the indicated compounds. C12-iE-DAP is a lipophilic version of the NOD1 agonist, iE-DAP. G, Growth profiles of B16-F10 subcutaneous tumors in wild-type C57BL/6 mice treated with 100 μg α-PD-L1 and 100 μg of the indicated compounds every other day starting at Day 7. H, Growth profiles of B16-F10 subcutaneous tumors in wild-type or Nod2^−/− C57BL/6 mice treated with 100 μg α-PD-L1 and 100 μg TT030 every other day starting at Day 7. Cytokine secretion assays and NOD activation assays were analyzed using a one-way ANOVA with Dunnett's multiple comparisons test compared to the DMSO control. Longitudinal tumor growth assays were analyzed using linear mixed-effects model analysis on the log transformed data. ns=not significant, *P<0.05, **P<0.01, ***P<0.001, ****P<0.0001.
Animals. Specific pathogen-free, eight-week old male C57BL/6J (B6, 000664) and B6.129S1—Nod2^tm1Flv/J (Nod2^−/−, 005763 from Flavell Lab, Yale School of Medicine) were obtained from The Jackson Laboratory. Animals were housed in autoclaved caging with SaniChip bedding and enrichment for nest building on a 12-hour light/dark cycle. Animals were provided gamma-irradiated chow (LabDiet, 5053) and sterile drinking water ad libitum. Animal care and experiments were conducted in accordance with NIH guidelines and approved by the Institutional Animal Care and Use Committee at Scripps Research (Protocol AUP-21-095).
Tumor growth assay. B16-F10 cells were subcultured on the day prior to harvesting for tumor inoculation. On the day of injection, cells were harvested using TrypLE Express, washed and resuspended in cold PBS, and counted with a hemocytometer. Cells were then resuspended at 2×10^6 cells mL^−1 in PBS and mixed 1:1 with Matrigel matrix (Corning; growth factor reduced, 356231). Cell suspensions were kept on ice prior to injection. Animals were anesthetized using 3% isoflurane, and their right flank was shaved with hair clippers. Animals were then subcutaneously injected with 100 μL of the cell suspension on their mid-right flank (1×10^5 cells per injection). Once tumors were established at roughly 25-100 mm^3, tumor volume was measured every other day. Digital calipers were used to measure the length and width of each tumor, and tumor volume was calculated as length×[…], where width was the smaller of the two measurements. […]

NOD1 [3] = molecular target: T2, NOD1; conditions: relative to iE-DAP; cited from earlier work

T1 sequence (Q9HC29 whole entry): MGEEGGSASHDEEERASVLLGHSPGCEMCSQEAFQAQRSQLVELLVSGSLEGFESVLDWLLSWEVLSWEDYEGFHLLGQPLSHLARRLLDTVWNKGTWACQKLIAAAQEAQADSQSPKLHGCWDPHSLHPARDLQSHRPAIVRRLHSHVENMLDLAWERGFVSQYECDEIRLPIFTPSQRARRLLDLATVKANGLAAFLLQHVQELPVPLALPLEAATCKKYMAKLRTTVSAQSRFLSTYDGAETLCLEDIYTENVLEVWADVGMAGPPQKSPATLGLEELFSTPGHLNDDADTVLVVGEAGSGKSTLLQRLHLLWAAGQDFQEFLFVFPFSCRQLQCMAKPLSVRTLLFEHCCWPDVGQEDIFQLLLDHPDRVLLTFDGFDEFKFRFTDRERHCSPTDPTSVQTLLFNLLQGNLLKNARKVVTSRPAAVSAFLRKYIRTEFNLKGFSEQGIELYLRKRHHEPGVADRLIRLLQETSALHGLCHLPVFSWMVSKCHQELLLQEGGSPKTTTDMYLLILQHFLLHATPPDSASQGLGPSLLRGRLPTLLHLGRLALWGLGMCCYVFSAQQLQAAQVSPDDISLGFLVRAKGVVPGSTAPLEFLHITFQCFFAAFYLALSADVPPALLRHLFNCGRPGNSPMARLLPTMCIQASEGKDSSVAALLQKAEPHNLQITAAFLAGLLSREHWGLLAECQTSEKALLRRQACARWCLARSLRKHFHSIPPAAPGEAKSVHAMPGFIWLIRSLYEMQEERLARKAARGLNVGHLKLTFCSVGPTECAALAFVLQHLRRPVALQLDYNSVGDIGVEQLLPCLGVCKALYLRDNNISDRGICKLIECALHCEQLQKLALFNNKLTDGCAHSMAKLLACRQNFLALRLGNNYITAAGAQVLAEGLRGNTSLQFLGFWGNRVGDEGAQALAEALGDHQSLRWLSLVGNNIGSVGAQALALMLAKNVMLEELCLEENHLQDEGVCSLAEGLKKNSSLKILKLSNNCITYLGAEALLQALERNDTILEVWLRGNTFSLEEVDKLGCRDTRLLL

CCOC(=O)CC[C@@H](NC(=O)[C@@H](NC(=O)c1c(C)nn(-c2ccc(F)cc2)c1C)C(C)C)C(=O)OCC [TT007, Diethyl (1-(4-fluorophenyl)-3,5-dimethyl-1H-pyrazole-4-carbonyl)-L-valyl-D-glutamate]
Activation of NULL HEK-Blue NF-κB reporter cells (HEK-Blue Null2): inactive
Activation of NOD2-expressing HEK-293T cells, colorimetric assay (NOD2; 10 µM, 16 h (FIG. 1E)): active
EC50 (NOD2; FIG. 1F, read-out: pEC50, dose-dependent NOD2 activation (converted)): ~1 µM
EC50 (NOD2; calculated, three-parameter dose-response nonlinear regression, read-out: pEC50 (μM), dose-dependent activation of NOD2-expressing HEK-293T cells (converted)): 1 µM
Activation of NOD1 HEK-Blue NF-κB reporter cells (NOD1 [1]): inactive

CCOC(=O)CC[C@H](NC(=O)[C@H](NC(=O)c1c(C)nn(-c2cc[nH]c(=O)c2)c1C)C(C)C)C(=O)OCC [TT030-ent, Diethyl (3,5-dimethyl-1-(2-oxo-1,2-dihydropyridin-4-yl)-1H-pyrazole-4-carbonyl)-D-valyl-L-glutamate]
B16 tumor growth over time [2]: not
NOD2 activity in the HEK-Blue in vitro assay (NOD2; FIG. 3F): NOD2-inactive

CCCCCCCCCCCC(=O)N[C@H](CCC(=O)NC(CCCC(N)C(=O)O)C(=O)O)C(=O)O (some centres unmarked) [C12-iE-DAP]
Greater activation of NOD1-dependent NF-κB reporter (NOD1 [3]): ~100 fold
